Measured values: patent US8753691B2, “Antiviral colloidal silver composition” (priority 1999, dated 2014)

Test system: Mycobacterium bovis BCG (TMC 1028)
Assay type: cell-based

SMILES: Oc1ccccc1 [phenol]
- log reduction (phenol resistance): ≈ 1.81
